One test concerns H3K9me2. Briefly: Immunoblotting analysis of global H3K9me2. Type of test: cell-based, human. The conditions noted are these: D05 and C008 cell lines, as early as 8 hours and persisted to 24 hours, FIG. 3B. The protocol:
(§1) For immunoblotting, protein whole cell lysates were prepared using RIPA lysis buffer containing 20 mM Tris, pH 8.0, 150 mM NaCl, 10% glycerol, 1% Nonidet P-40 containing protease inhibitor cocktail (Roche). Nuclear extracts were obtained using a standard high salt extraction buffer (20 mM HEPES (pH 7.9), 0.32 M NaCl, 1 mM EDTA, and 1 mM EGTA) supplemented with 1mM DU and protease inhibitor cocktail. Protein assays were performed according to the Bradford method using a protein assay kit (BioRad). […] of denatured proteins were separated using 10% sodium dodecyl sulfate-polyacrylamide gel electrophoresis (SDS-PAGE) and transferred to Polyvinylidene difluoride (PVDF) membranes. The membranes were blocked for 1 hour in 5% skim milk in Tris-buffered saline with Tween 20 (TBST; 10 mM Tris-HCl, 150 mM NaCl, 0.1% Tween 20). Immunoblotting was performed with primary anti G9a (#3306, Cell Signaling), H3K9me2 (ab 1220, Abcam), H3 (ab1791, Abcam) or Tubulin (ab6046, Abcam) and detected with either HRP-conjugated anti-rabbit (#7074, Cell Signaling Technology) or HRP-conjugated anti-mouse (#7076, Cell Signaling Technology). After applying ECL detection reagents (GE Healthcare), protein bands were visualized using X-ray film (Fujifilm).

A further test relates to LC3B II. Briefly: Immunoblotting analysis of LC3B I/II. The format is cell-based, human. The settings on record: D05 and C008 cell lines, 5 μM, 8 hours, FIG. 6. The protocol:
as §1
Immunoblotting analysis was performed as described above, but also utilizing an anti-LC3B primary antibody (ab48394, Abcam).
For orientation: In western blotting, separated proteins are transferred to a membrane and probed.

In test [1] the test system is PD-L1 and PD-1 in CD8+ T cells. Briefly: Flow cytometry analysis of tumor infiltrating lymphocytes from AT3 tumors. The conditions noted are these: TILs from AT3 tumors, UNC0642 25 mg/kg every 2 days for 14 days, FIG. 18. The format is in vivo, C57BL/6 mice. The text has this:
C57BL/6 mice were purchased from the ARC Animal Resources Centre and used between the ages of 6 and 16 weeks. Groups of 3 to 8 mice per experiment were used for experimental assays, to ensure adequate power to detect biological differences. All experiments were approved by the QIMR Berghofer Medical Research Institute Animal Ethics Committee.
The C57BL/6 AT3 mammary adenocarcinoma (obtained from Dr. Trina Stewart in 2009, Peter MacCallum Cancer Centre, Melbourne, Australia) were maintained as previously described (Casciello et al PNAS 2017). The AT3 cell line was tested negative for mycoplasma. For in vivo experiments, 1×10^5 cells were subcutaneously injected into mice in a 100 μL volume.
AT3 tumor growth was measured using a digital caliper, and tumor volumes were presented as mean±SEM. For flow cytometry analyses of intratumor immune cells, mice bearing established AT3 tumor (days 14-19) were treated with the indicated antibodies or reagents and immune cells were isolated 48 to 72 hours post treatment.
Tumors tissues were harvested from mice that had been treated with mAb or otherwise and processed for flow cytometry analysis. […]
On the technique in general: Flow cytometry measures light scatter and fluorescence of single cells or particles in a stream.

On to `COc1cc2c(NC3CCN(C(C)C)CC3)nc(N3CCC(F)(F)CC3)nc2cc1OCCCN1CCCC1` [UNC0642], for which the “global H3K9me2” value in the test with H3K9me2 was “reduction”. Moreover, the “LC3B II protein levels” value in the test with LC3B II is listed as “dramatically increased”. Moreover, the “PD-L1 and PD-1 in CD8+ T cells” value in test [1] was “down-regulation”.
